Laboratory results from patent US5179088A, “1-Carba(dethia)cephalosporin antibiotics” (Eli Lilly and Company, priority 1990, dated 1993).

What was measured:
Type in all cases: cell-based
Set-up in all cases: unit not given here
Staphylococcus Aureus = assay: in vitro antibacterial activity, agar dilution (Staphylococcus aureus)
Method: (§1) *minimum inhibitory concentrations were determined by the Agardilution

Salmonella = assay: in vitro antibacterial activity, agar dilution (Salmonella)
Method: as §1

Serratia = assay: in vitro antibacterial activity, agar dilution (Serratia)
Method: as §1

Citro = assay: in vitro antibacterial activity, agar dilution (Citro)
Method: as §1

Proteus rett = assay: in vitro antibacterial activity, agar dilution (Proteus rett)
Method: as §1

Klebsiella = assay: in vitro antibacterial activity, agar dilution (Klebsiella)
Method: as §1

Streptococcus A = assay: in vitro antibacterial activity, agar dilution (Streptococcus A)
Method: as §1

Streptococcus pn = assay: in vitro antibacterial activity, agar dilution (Streptococcus pn); conditions: strain PARK
Method: as §1

H. Influ. = assay: in vitro antibacterial activity, agar dilution (H. influ.)
Method: as §1

Streptococcus D = assay: in vitro antibacterial activity, agar dilution (Streptococcus D)
Method: as §1

Proteus morg = assay: in vitro antibacterial activity, agar dilution (Proteus morg)
Method: as §1

Proteus incon = assay: in vitro antibacterial activity, agar dilution (Proteus incon)
Method: as §1

Shig. sonn = assay: in vitro antibacterial activity, agar dilution (Shig. sonn)
Method: as §1

Staphylococcus Epi = assay: in vitro antibacterial activity, agar dilution (Staphylococcus epi)
Method: as §1

E. coli = assay: in vitro antibacterial activity, agar dilution (E. coli)
Method: as §1

Acin = assay: in vitro antibacterial activity, agar dilution (Acin)
Method: as §1

Enterbacter Cloacea = assay: in vitro antibacterial activity, agar dilution (Enterobacter cloacae)
Method: as §1

Enterbacter Aerogenes = assay: in vitro antibacterial activity, agar dilution (Enterobacter aerogenes)
Method: as §1

Pseudomonas = assay: in vitro antibacterial activity, agar dilution (Pseudomonas)
Method: as §1

## CO/N=C(\C(=O)N[C@@H]1C(=O)N2C(C(=O)O)=C(c3csc(-c4ccccc4)n3)CC[C@H]12)c1csc(N)n1 [Example 31, Sodium 7β-[(2-aminothiazol-4-yl)-Z-methoximinoacetylamino]-1-carba-(1-dethia)-3-[2-(2-phenyl)thiazol-4-yl]-3-cephem-4-carboxylate]
Staphylococcus Aureus; strain S13E
  minimum inhibitory concentration: 128
Staphylococcus Aureus; strain V41
  minimum inhibitory concentration: 2
Staphylococcus Aureus; strain X1.1
  minimum inhibitory concentration: 1
Staphylococcus Aureus; strain X400
  minimum inhibitory concentration: > 128
Salmonella; strain 1335
  minimum inhibitory concentration: 4
Salmonella; strain X514
  minimum inhibitory concentration: 2
Serratia; strain SE3
  minimum inhibitory concentration: 8
Serratia; strain X99
  minimum inhibitory concentration: 4
Citro; strain CF17
  minimum inhibitory concentration: 4
Proteus rett; strain C24
  minimum inhibitory concentration: .25
Klebsiella; strain KAE
  minimum inhibitory concentration: 1
Klebsiella; strain X26
  minimum inhibitory concentration: .015
Klebsiella; strain X68
  minimum inhibitory concentration: 1
Streptococcus A; strain C203
  minimum inhibitory concentration: < .008
Streptococcus pn
  minimum inhibitory concentration: < .008
H. Influ.; res, strain 76
  minimum inhibitory concentration: .03
H. Influ.; sens, strain C.L.
  minimum inhibitory concentration: .06
Streptococcus D; strain 2041
  minimum inhibitory concentration: 4
Streptococcus D; strain X66
  minimum inhibitory concentration: > 128
Proteus morg; strain PR15
  minimum inhibitory concentration: 2
Proteus incon; strain PR33
  minimum inhibitory concentration: .5
Shig. sonn; strain N9
  minimum inhibitory concentration: 1
Staphylococcus Epi; strain 222
  minimum inhibitory concentration: 2
Staphylococcus Epi; strain 270
  minimum inhibitory concentration: 8
E. coli; strain EC14
  minimum inhibitory concentration: 1
E. coli; strain N10
  minimum inhibitory concentration: 2
E. coli; strain TEM
  minimum inhibitory concentration: 1
Acin; strain AC12
  minimum inhibitory concentration: 128
Enterbacter Cloacea; strain 265A
  minimum inhibitory concentration: 64
Enterbacter Cloacea; strain EB5
  minimum inhibitory concentration: 1
Enterbacter Aerogenes; strain C32
  minimum inhibitory concentration: 1
Enterbacter Aerogenes; strain EB17
  minimum inhibitory concentration: 1
Pseudomonas; strain PS18
  minimum inhibitory concentration: > 128
Pseudomonas; strain PS72
  minimum inhibitory concentration: > 128
Pseudomonas; strain X239
  minimum inhibitory concentration: > 128
Pseudomonas; strain X528
  minimum inhibitory concentration: > 128

## CO/N=C(\C(=O)N[C@@H]1C(=O)N2C(C(=O)O)=C(c3csc(-c4ccco4)n3)CC[C@H]12)c1csc(N)n1 [Example 32]
Staphylococcus Aureus; strain S13E
  minimum inhibitory concentration: 128
Staphylococcus Aureus; strain S13E, retest
  minimum inhibitory concentration: 128
Staphylococcus Aureus; strain V41
  minimum inhibitory concentration: 8
Staphylococcus Aureus; strain V41, retest
  minimum inhibitory concentration: 4
Staphylococcus Aureus; strain X1.1
  minimum inhibitory concentration: 4
Staphylococcus Aureus; strain X1.1, retest
  minimum inhibitory concentration: 2
Staphylococcus Aureus; strain X400
  minimum inhibitory concentration: > 128
Staphylococcus Aureus; strain X400, retest
  minimum inhibitory concentration: > 128
Salmonella; strain 1335
  minimum inhibitory concentration: 4
Salmonella; strain 1335, retest
  minimum inhibitory concentration: 2
Salmonella; strain X514
  minimum inhibitory concentration: 1
Salmonella; strain X514, retest
  minimum inhibitory concentration: 1
Serratia; strain SE3
  minimum inhibitory concentration: 16
Serratia; strain SE3, retest
  minimum inhibitory concentration: 16
Serratia; strain X99
  minimum inhibitory concentration: 14
Serratia; strain X99, retest
  minimum inhibitory concentration: 2
Citro; strain CF17
  minimum inhibitory concentration: .5
Citro; strain CF17, retest
  minimum inhibitory concentration: 1
Proteus rett; strain C24
  minimum inhibitory concentration: .5
Proteus rett; strain C24, retest
  minimum inhibitory concentration: .5
Klebsiella; strain KAE
  minimum inhibitory concentration: 1
Klebsiella; strain KAE, retest
  minimum inhibitory concentration: 16
Klebsiella; strain X26
  minimum inhibitory concentration: 8
Klebsiella; strain X26, retest
  minimum inhibitory concentration: < .008
Klebsiella; strain X68
  minimum inhibitory concentration: 1
Klebsiella; strain X68, retest
  minimum inhibitory concentration: 1
Streptococcus A; strain C203
  minimum inhibitory concentration: .015
Streptococcus A; strain C203, retest
  minimum inhibitory concentration: .015
Streptococcus pn
  minimum inhibitory concentration: .03
Streptococcus pn; retest
  minimum inhibitory concentration: .03
H. Influ.; res, strain 76
  minimum inhibitory concentration: < .008
H. Influ.; res, strain 76, retest
  minimum inhibitory concentration: .015
H. Influ.; sens, strain C.L.
  minimum inhibitory concentration: .06
H. Influ.; sens, strain C.L., retest
  minimum inhibitory concentration: .03
Streptococcus D; strain 2041
  minimum inhibitory concentration: 16
Streptococcus D; strain 2041, retest
  minimum inhibitory concentration: 16
Streptococcus D; strain X66
  minimum inhibitory concentration: > 128
Streptococcus D; strain X66, retest
  minimum inhibitory concentration: > 128
Proteus morg; strain PR15
  minimum inhibitory concentration: 2
Proteus morg; strain PR15, retest
  minimum inhibitory concentration: 2
Proteus incon; strain PR33
  minimum inhibitory concentration: .5
Proteus incon; strain PR33, retest
  minimum inhibitory concentration: .25
Shig. sonn; strain N9
  minimum inhibitory concentration: 1
Shig. sonn; strain N9, retest
  minimum inhibitory concentration: 1
Staphylococcus Epi; strain 222
  minimum inhibitory concentration: 4
Staphylococcus Epi; strain 222, retest
  minimum inhibitory concentration: 4
Staphylococcus Epi; strain 270
  minimum inhibitory concentration: 16
Staphylococcus Epi; strain 270, retest
  minimum inhibitory concentration: 8
E. coli; strain EC14
  minimum inhibitory concentration: 1
E. coli; strain EC14, retest
  minimum inhibitory concentration: .5
E. coli; strain N10
  minimum inhibitory concentration: 1
E. coli; strain N10, retest
  minimum inhibitory concentration: 1
E. coli; strain TEM
  minimum inhibitory concentration: < .008
E. coli; strain TEM, retest
  minimum inhibitory concentration: .5
Acin; strain AC12
  minimum inhibitory concentration: 128
Acin; strain AC12, retest
  minimum inhibitory concentration: 128
Enterbacter Cloacea; strain 265A
  minimum inhibitory concentration: 128
Enterbacter Cloacea; strain 265A, retest
  minimum inhibitory concentration: 128
Enterbacter Cloacea; strain EB5
  minimum inhibitory concentration: 2
Enterbacter Cloacea; strain EB5, retest
  minimum inhibitory concentration: 2
Enterbacter Aerogenes; strain C32
  minimum inhibitory concentration: 1
Enterbacter Aerogenes; strain C32, retest
  minimum inhibitory concentration: .5
Enterbacter Aerogenes; strain EB17
  minimum inhibitory concentration: 1
Enterbacter Aerogenes; strain EB17, retest
  minimum inhibitory concentration: 1
Pseudomonas; strain PS18
  minimum inhibitory concentration: > 128
Pseudomonas; strain PS18, retest
  minimum inhibitory concentration: > 128
Pseudomonas; strain PS72
  minimum inhibitory concentration: > 128
Pseudomonas; strain PS72, retest
  minimum inhibitory concentration: > 128
Pseudomonas; strain X239
  minimum inhibitory concentration: > 128
Pseudomonas; strain X239, retest
  minimum inhibitory concentration: > 128
Pseudomonas; strain X528
  minimum inhibitory concentration: > 128
Pseudomonas; strain X528, retest
  minimum inhibitory concentration: > 128

## CO/N=C(\C(=O)N[C@@H]1C(=O)N2C(C(=O)O)=C(c3csc(-c4ccc([N+](=O)[O-])cc4)n3)CC[C@H]12)c1csc(N)n1 [Example 35, Sodium 7β-[(2-aminothiazol-4-yl)-Z-methoximinoacetylamino]-1-carba-(1-dethia)-3-[2-(4-nitrophenyl)thiazol-4-yl]-3-cephem-4-carboxylate]
Staphylococcus Aureus; strain S13E
  minimum inhibitory concentration: 32
Staphylococcus Aureus; strain V41
  minimum inhibitory concentration: 2
Staphylococcus Aureus; strain X1.1
  minimum inhibitory concentration: .5
Staphylococcus Aureus; strain X400
  minimum inhibitory concentration: > 128
Salmonella; strain 1335
  minimum inhibitory concentration: 4
Salmonella; strain X514
  minimum inhibitory concentration: 1
Serratia; strain SE3
  minimum inhibitory concentration: 4
Serratia; strain X99
  minimum inhibitory concentration: 4
Citro; strain CF17
  minimum inhibitory concentration: 2
Proteus rett; strain C24
  minimum inhibitory concentration: .25
Klebsiella; strain KAE
  minimum inhibitory concentration: .5
Klebsiella; strain X26
  minimum inhibitory concentration: < .008
Klebsiella; strain X68
  minimum inhibitory concentration: 1
Streptococcus A; strain C203
  minimum inhibitory concentration: < .008
Streptococcus pn
  minimum inhibitory concentration: < .008
H. Influ.; res, strain 76
  minimum inhibitory concentration: .015
H. Influ.; sens, strain C.L.
  minimum inhibitory concentration: .03
Streptococcus D; strain 2041
  minimum inhibitory concentration: 4
Streptococcus D; strain X66
  minimum inhibitory concentration: > 128
Proteus morg; strain PR15
  minimum inhibitory concentration: .5
Proteus incon; strain PR33
  minimum inhibitory concentration: .25
Shig. sonn; strain N9
  minimum inhibitory concentration: .5
Staphylococcus Epi; strain 222
  minimum inhibitory concentration: 2
Staphylococcus Epi; strain 270
  minimum inhibitory concentration: 4
E. coli; strain EC14
  minimum inhibitory concentration: .5
E. coli; strain N10
  minimum inhibitory concentration: 1
E. coli; strain TEM
  minimum inhibitory concentration: .5
Acin; strain AC12
  minimum inhibitory concentration: 64
Enterbacter Cloacea; strain 265A
  minimum inhibitory concentration: 16
Enterbacter Cloacea; strain EB5
  minimum inhibitory concentration: 1
Enterbacter Aerogenes; strain C32
  minimum inhibitory concentration: .5
Enterbacter Aerogenes; strain EB17
  minimum inhibitory concentration: 1

## CO/N=C(\C(=O)N[C@@H]1C(=O)N2C(C(=O)O)=C(c3csc(-c4ncc([N+](=O)[O-])s4)n3)CC[C@H]12)c1csc(N)n1 [Example 36]
Staphylococcus Aureus; strain S13E
  minimum inhibitory concentration: 32
Staphylococcus Aureus; strain V41
  minimum inhibitory concentration: 2
Staphylococcus Aureus; strain X1.1
  minimum inhibitory concentration: .25
Staphylococcus Aureus; strain X400
  minimum inhibitory concentration: 16
Salmonella; strain 1335
  minimum inhibitory concentration: .5
Salmonella; strain X514
  minimum inhibitory concentration: .25
Serratia; strain SE3
  minimum inhibitory concentration: 4
Serratia; strain X99
  minimum inhibitory concentration: 1
Citro; strain CF17
  minimum inhibitory concentration: .06
Proteus rett; strain C24
  minimum inhibitory concentration: .06
Klebsiella; strain KAE
  minimum inhibitory concentration: .5
Klebsiella; strain X26
  minimum inhibitory concentration: < .008
Klebsiella; strain X68
  minimum inhibitory concentration: .25
Streptococcus A; strain C203
  minimum inhibitory concentration: .015
Streptococcus pn
  minimum inhibitory concentration: < .008
H. Influ.; res, strain 76
  minimum inhibitory concentration: < .008
H. Influ.; sens, strain C.L.
  minimum inhibitory concentration: .015
Streptococcus D; strain 2041
  minimum inhibitory concentration: 4
Streptococcus D; strain X66
  minimum inhibitory concentration: 64
Proteus morg; strain PR15
  minimum inhibitory concentration: .25
Proteus incon; strain PR33
  minimum inhibitory concentration: .25
Shig. sonn; strain N9
  minimum inhibitory concentration: .25
Staphylococcus Epi; strain 222
  minimum inhibitory concentration: 2
Staphylococcus Epi; strain 270
  minimum inhibitory concentration: 1
E. coli; strain N10
  minimum inhibitory concentration: .25
E. coli; strain TEM
  minimum inhibitory concentration: .25
Acin; strain AC12
  minimum inhibitory concentration: 32
Enterbacter Cloacea; strain 265A
  minimum inhibitory concentration: .5
Enterbacter Cloacea; strain EB5
  minimum inhibitory concentration: 1
Enterbacter Aerogenes; strain C32
  minimum inhibitory concentration: .125
Enterbacter Aerogenes; strain EB17
  minimum inhibitory concentration: .25
Pseudomonas; strain PS18
  minimum inhibitory concentration: > 128
Pseudomonas; strain PS72
  minimum inhibitory concentration: > 128
Pseudomonas; strain X239
  minimum inhibitory concentration: 32
Pseudomonas; strain X528
  minimum inhibitory concentration: 32
